Experiments:
Assay type in all cases: cell-based, mouse
BFU-E cells [1] = test: Serum free erythroid liquid expansion (SFELE) progenitor growth assay of sorted BFU-E cells; conditions: for Total cell expansion from 1000 BFU-E cells: CD71 10% low BFU-E cells, SFELE medium
Method: (§1) FIGS. 1A-1F. […] Error bars show one standard deviation. […] Error bars show one standard deviation. […] Shown is the fraction of c-kit+ cells after 72 hours. […] Cell numbers in each clone were estimated under the microscope on Day 8.
(§2) FIGS. 3A-3B. […] The experimental protocol was similar to that used in FIGS. 1A and B except that the CFU-E and BFU-E cells were purer (CD71 and CD24a^20% high and CD71 and CD24a^10% low, respectively). […] (A) Proliferation of sorted CFU-E cells. […] Error bars show one standard deviation. (B) Proliferation of sorted BFU-E cells. […] Error bars show one standard deviation.
FIG. 4. […] Cells were counted from day 4 until the day cell counts dropped.
(A) The total number of cells formed from 1000 BFU-E cells at different time points. […] Standard deviation between four separate biological experiments is shown in parenthesis (n/d=not determined).
(§3) We developed a modified version of the serum free erythroid liquid expansion culture (SFELE) medium described by Dolzning et al. (Dolznig et al., 2006).

[2] = test system: fetal liver erythroid progenitor (FLEP) cells; test: Colony forming assays of magnetically depleted fetal liver cells (Table S1)
Method: The negatively enriched cell populations were subjected to colony forming assays under two different conditions. […] CFU-E colonies were counted 3 days later. […] These cells were cultured 8-9 days before late BFU-E, early BFU-E, CFU-G/M/Mk (granulocyte, monocyte, megakaryocyte), and CFU-GEMM (granulocyte, erythrocyte, monocyte, megakaryocyte) colonies were scored. BFU-Es consisting of a cluster of only 5-20 CFU-Es were scored as late, while larger BFU-Es were scored as early. 2,7-fluorenediamine was used to stain hemoglobin-containing colonies in the plates. […] Standard deviation between experiments is shown in parenthesis.
The first step towards enrichment of BFU-E and CFU-E cells was to remove more mature blood cells from single cell suspensions of fetal livers by magnetic column depletion. We stained fetal liver cells with a panel of biotin labeled anti-lineage (Lin) antibodies (Ter119, B220, Mac-1, CD3 and Gr-1), followed by anti-biotin tetramer and magnetic colloid labeling. All positive cells were depleted using magnetic columns.
Colonies were scored after 3 days. […] The number of hemoglobinized early BFU-E and late BFU-E colonies was determined after 8-9 days following staining with 2,7-Diaminofluorene (Sigma Chemical, St. Louis, Mo.).

CFU-E cells = test: SFELE progenitor growth assay of sorted CFU-E cells; conditions: 100 nM Dex
Method: as §1, §2, §3

BFU-E cells [3] = test: Single BFU-E cell culture in SFELE medium
Method: FIGS. 1A-1F. Glucocorticoids stimulate stress erythropoiesis by enhancing erythroblast output predominantly from BFU-E progenitors. […] Error bars show one standard deviation. […] Error bars show one standard deviation. […] Shown is the fraction of c-kit+ cells after 72 hours. […] Cell numbers in each clone were estimated under the microscope on Day 8. 80% of sorted BFU-E cells form more than 100 daughter cells in erythroid expansion culture.
The “BFU-E” cell population that contains the GC-responsive cells, while highly enriched for BFU-Es, is a heterogeneous mix of erythroid progenitors. In order to determine the effect of GCs at the single cell level, we performed single “BFU-E” cell culture experiments (FIG. 1E).

[4] = test system: miRNA expression in BFU-E cells; test: Small RNA (miRNA) sequencing of BFU-E cells cultured 4 hours with or without Dex; conditions: 100 nM Dex
Description: FIGS. 2A-2B. The effect of glucocorticoids on miRNA and mRNA expression in BFU-E cells determined by next generation sequencing. […] Both mRNAs and miRNAs were subjected to Illumina deep sequencing. […] (B) A plot similar to that in A for expression of individual mRNAs. mRNA expression was normalized using the RPKM method, which determines the relative expression of each gene to all expressed genes by giving each gene an RPKM count (number of uniquely aligning reads per kb exon per million total reads).
B) Percent of total miRNA expression of the 20 highest expressed miRNAs. C) Percent of total miRNA expression of the 20 highest expressed miRNA-families.
Differences in miRNA expression were determined as described previously (Baek et al., 2008). […] Since several miRNAs contain the same seed sequence and therefore target the same group of mRNAs we also compared changes in expression of miRNA families.
Small RNA sequencing was performed essentially as described (Grimson et al., 2008). […] The adaptor sequence was stripped and aligned to mouse NCBI build 37 (mm9) using ELAND. Reads mapping to the known microRNA hairpins were used for downstream analysis. Reads mapping to miRNA with more than one known copy in the genome were divided equally between the different loci. miRNA analysis methods to compute miRNA expression counts were derived from previously published methods (Baek et al., 2008).

[5] = dose response curves in the absence of DMOG
[6] = Lin− fetal liver cells, EPO, SCF, IL-3, IL-6, 100 nM Dex
[7] = Lin−, CD32/16− cells, 100 nM Dex
[8] = Lin−, CD32/16−, Sca-1− cells, 100 nM Dex
[9] = Lin−, CD32/16−, Sca-1−, CD41− cells, 100 nM Dex
[10] = Lin−, CD32/16−, Sca-1−, CD41−, CD34− (FLEP cells), 100 nM Dex

C[C@@H]1C[C@H]2[C@@H]3CCC4=CC(=O)C=C[C@]4(C)[C@@]3(F)[C@@H](O)C[C@]2(C)[C@@]1(O)C(=O)CO [Dex, dexamethasone]
Increase of total number of cells after the first three days (BFU-E cells [1]; CD24 and CD71 10% low BFU-E cells, 100 nM Dex and/or 333 μM DMOG): ~20 fold | Total cell expansion from 1000 "BFU-E" cells, liquid culture (BFU-E cells [1]; CD24 and CD71 10% low BFU-E cells, SFELE, 100 nM Dex and/or 333 μM DMOG, day 1): 3,900 | Total cell expansion from 1000 "BFU-E" cells, liquid culture (BFU-E cells [1]; CD24 and CD71 10% low BFU-E cells, SFELE, 100 nM Dex and/or 333 μM DMOG, day 2): 30,000 | Total cell expansion from 1000 "BFU-E" cells, liquid culture (BFU-E cells [1]; CD24 and CD71 10% low BFU-E cells, SFELE, 100 nM Dex and/or 333 μM DMOG, day 3): 200,000 | Total cell expansion from 1000 "BFU-E" cells, liquid culture (BFU-E cells [1]; CD24 and CD71 10% low BFU-E cells, SFELE, 100 nM Dex and/or 333 μM DMOG, day 4): 1,200,000 | Total cell expansion from 1000 "BFU-E" cells, liquid culture (BFU-E cells [1]; CD24 and CD71 10% low BFU-E cells, SFELE, 100 nM Dex and/or 333 μM DMOG, day 5): 3,500,000 | Total cell expansion from 1000 "BFU-E" cells, liquid culture (BFU-E cells [1]; CD24 and CD71 10% low BFU-E cells, SFELE, 100 nM Dex and/or 333 μM DMOG, day 6): 7,200,000 | Total cell expansion from 1000 "BFU-E" cells, liquid culture (BFU-E cells [1]; CD24 and CD71 10% low BFU-E cells, SFELE, 100 nM Dex and/or 333 μM DMOG, day 7): 14,000,000 | Total cell expansion from 1000 "BFU-E" cells, liquid culture (BFU-E cells [1]; CD24 and CD71 10% low BFU-E cells, SFELE, 100 nM Dex and/or 333 μM DMOG, day 8): 20,000,000 | Total cell expansion from 1000 "BFU-E" cells, liquid culture (BFU-E cells [1]; CD24 and CD71 10% low BFU-E cells, SFELE, 100 nM Dex and/or 333 μM DMOG, day 9): 25,000,000 | Total cell expansion from 1000 "BFU-E" cells, liquid culture (BFU-E cells [1]; CD24 and CD71 10% low BFU-E cells, SFELE, 100 nM Dex and/or 333 μM DMOG, day 10): 25,000,000 | Total cell expansion from 1000 "BFU-E" cells, liquid culture (BFU-E cells [1]; CD24 and CD71 10% low BFU-E cells, SFELE, 100 nM Dex and/or 333 μM DMOG, day 11): 20,000,000 | Total cell expansion from 1000 BFU-E cells (BFU-E cells [1]; 100 nM Dex, 24 h): 5,367 (±1,626) | Total cell expansion from 1000 BFU-E cells (BFU-E cells [1]; 100 nM Dex, 48 h): 50,013 (±18,160) | Total cell expansion from 1000 BFU-E cells (BFU-E cells [1]; 100 nM Dex, 72 h): 297,340 (±114,540) | Total cell expansion from 1000 BFU-E cells (BFU-E cells [1]; 100 nM Dex, 120 h): 2,484,148 (±988,022) | Expansion of BFU-E cells, peak (BFU-E cells [1]; CD71 10% low cells, SFELE, 100 nM Dex, peak at day 8): 8,800 fold | Increase of proliferation of sorted BFU-E cells (BFU-E cells [1]; CD71 and CD24a 10% low cells, SFELE, 100 nM Dex and/or 333 μM DMOG, versus no additions): 42 fold | Average number of divisions of each BFU-E cell (BFU-E cells [1]; SFELE, 100 nM Dex): 13 times | Cell number per original BFU-E cell (BFU-E cells [1]; SFELE, 100 nM Dex): 8,800 cells per original BFU-E cell | Dex concentrations at which a clear effect on CFU-E formation is seen (BFU-E cells [1]; [5]): > 2 nM | Dex concentrations giving maximum effect on CFU-E formation (BFU-E cells [1]; [5]): above 10 nM | Dex concentration that supports maximal stimulation of BFU-E proliferation (BFU-E cells [1]; dose-response, FIG. 1 C and D): 10 nM | Dex concentrations with little stimulatory effect on BFU-E proliferation (BFU-E cells [1]; dose-response, FIG. 1 C and D): below 1 nM | CFU-G/M/Meg colonies, scored day 8-9 [2, 6]: 25 (±5) colonies per 1000 plated cells | GEMM colonies, scored day 8-9 [2, 6]: 7 (±4) colonies per 1000 plated cells | early BFU-E colonies, scored day 8-9 [2, 6]: 39 (±12) colonies per 1000 plated cells | late BFU-E colonies, scored day 8-9 [2, 6]: 53 (±13) colonies per 1000 plated cells | CFU-E colonies, scored day 3 ([2]; Lin− fetal liver cells, methylcellulose 10U EPO/mL, 100 nM Dex): 472 (±79) colonies per 1000 plated cells | CFU-G/M/Meg colonies, scored day 8-9 [2, 7]: 17 (±10) colonies per 1000 plated cells | GEMM colonies, scored day 8-9 [2, 7]: 5 (±2) colonies per 1000 plated cells | early BFU-E colonies, scored day 8-9 [2, 7]: 37 (±12) colonies per 1000 plated cells | late BFU-E colonies, scored day 8-9 [2, 7]: 69 (±14) colonies per 1000 plated cells | CFU-E colonies, scored day 3 ([2]; Lin−, CD32/16− fetal liver cells, 10U EPO/mL, 100 nM Dex): 560 (±245) colonies per 1000 plated cells | CFU-G/M/Meg colonies, scored day 8-9 [2, 8]: 7 (±3) colonies per 1000 plated cells | GEMM colonies, scored day 8-9 [2, 8]: 0.2 (±0.3) colonies per 1000 plated cells | early BFU-E colonies, scored day 8-9 [2, 8]: 24 (±5) colonies per 1000 plated cells | late BFU-E colonies, scored day 8-9 [2, 8]: 110 (±10) colonies per 1000 plated cells | CFU-G/M/Meg colonies, scored day 8-9 [2, 9]: 9 (±12) colonies per 1000 plated cells | GEMM colonies, scored day 8-9 [2, 9]: 0.3 (±0.4) colonies per 1000 plated cells | early BFU-E colonies, scored day 8-9 [2, 9]: 10 (±4) colonies per 1000 plated cells | late BFU-E colonies, scored day 8-9 [2, 9]: 142 (±77) colonies per 1000 plated cells | CFU-G/M/Meg colonies, scored day 8-9 [2, 10]: 4 (±6) colonies per 1000 plated cells | GEMM colonies, scored day 8-9 [2, 10]: 0.3 (±0.5) colonies per 1000 plated cells | early BFU-E colonies, scored day 8-9 [2, 10]: 23 (±17) colonies per 1000 plated cells | late BFU-E colonies, scored day 8-9 [2, 10]: 141 (±84) colonies per 1000 plated cells | Average number of erythroblasts formed from each CFU-E cell (CFU-E cells): 28 | Expansion of sorted CFU-E cells (production of erythroblasts), peak (CFU-E cells; CD71 20% high cells, peak at day 3): 28 fold | Erythroblasts generated by individual BFU-E cells (BFU-E cells [3]; day 8, 100 nM Dex): more than 300,000 erythroblasts | Cell divisions performed by some BFU-E cells (BFU-E cells [3]; in 8 days, 100 nM Dex): more than 18 cell divisions | Additional cell divisions allowed (BFU-E cells [3]; single cell level, 100 nM Dex versus without Dex): more than 6 cell divisions | Increase in expression of the 100 highest expressed miRNAs [4]: ≤ 50% | Increase in miR-451 expression [4]: 49%

Reference: patent US20130059783A1, “COMPOSITIONS AND METHODS FOR EXPANDING BFU-E CELLS” (priority 2010, published 2013)
